Measurements reported in patent US20110218103A1, “Fluoroalkyl-substituted 2-amidobenzimidazoles” (BAYER CROPSCIENCE AG, priority 2010, published 2011).

Experiments:
Assay type in all cases: in vivo
Zea mays (ZEAMX) [1] = assay: Cold stress test on crop plants, spray application in greenhouse, visual damage rating; conditions: 25 g/ha, mean of three results
Experimental: Seeds of monocotyledonous and dicotyledonous crop plants were placed in sandy loam in wood-fiber pots, covered with soil and cultivated in a greenhouse under good growth conditions. The test plants were treated at the early leaf stage (BBCH10-BBCH13). To ensure uniform water supply before commencement of stress, the potted plants were supplied with the maximum amount of water immediately beforehand by dam irrigation and, after application, transferred in plastic inserts in order to prevent subsequent, excessively rapid drying. The inventive compounds, formulated in the form of wettable powders (WP), wettable granules (WG), suspension concentrates (SC) or emulsion concentrates (EC), were sprayed onto the green parts of the plants as an aqueous suspension at an equivalent water application rate of 600 l/ha with addition of 0.2% wetting agent (agrotin). Substance application was followed immediately by stress treatment of the plants (cold or drought stress). For cold stress treatment, the plants were kept under the following controlled conditions: “day”: 12 hours with illumination at 8° C. “night”: 12 hours without illumination at 1° C. The duration of the respective stress phases was guided mainly by the state of the untreated, stressed control plants and thus varies from crop to crop. It was ended (by re-irrigating or transfer to a greenhouse with good growth conditions) as soon as irreversible damage is observed on the untreated, stressed control plants. In the case of dicotyledonous crops, for example oilseed rape and soya, the duration of the drought stress phase was between 3 and 5 days, in the case of monocotyledonous crops, for example wheat, barley or corn, between 6 and 10 days. The duration of the cold stress phase varied between 12 and 14 days. The end of the stress phase was followed by an approx. 5-7-day recovery phase, during which the plants were once again kept under good growth conditions in a greenhouse. […] The intensity of damage was first assessed as a percentage (100%=plants have died, 0%=like control plants). […]

Brassica napus (BRSNS) = assay: Drought stress test on crop plants, spray application in greenhouse, visual damage rating; conditions: 50 g/ha, mean of three results
Experimental: Seeds of monocotyledonous and dicotyledonous crop plants were placed in sandy loam in wood-fiber pots, covered with soil and cultivated in a greenhouse under good growth conditions. The test plants were treated at the early leaf stage (BBCH10-BBCH13). To ensure uniform water supply before commencement of stress, the potted plants were supplied with the maximum amount of water immediately beforehand by dam irrigation and, after application, transferred in plastic inserts in order to prevent subsequent, excessively rapid drying. The inventive compounds, formulated in the form of wettable powders (WP), wettable granules (WG), suspension concentrates (SC) or emulsion concentrates (EC), were sprayed onto the green parts of the plants as an aqueous suspension at an equivalent water application rate of 600 l/ha with addition of 0.2% wetting agent (agrotin). Substance application was followed immediately by stress treatment of the plants (cold or drought stress). For cold stress treatment, the plants were kept under the following controlled conditions: Drought stress was induced by gradual drying out under the following conditions: “day”: 14 hours with illumination at 26° C. “night”: 10 hours without illumination at 18° C. The duration of the respective stress phases was guided mainly by the state of the untreated, stressed control plants and thus varies from crop to crop. It was ended (by re-irrigating or transfer to a greenhouse with good growth conditions) as soon as irreversible damage is observed on the untreated, stressed control plants. In the case of dicotyledonous crops, for example oilseed rape and soya, the duration of the drought stress phase was between 3 and 5 days, in the case of monocotyledonous crops, for example wheat, barley or corn, between 6 and 10 days. The duration of the cold stress phase varied between 12 and 14 days. The end of the stress phase was followed by an approx. 5-7-day recovery phase, during which the plants were once again kept under good growth conditions in a greenhouse. In order to rule out any influence of the effects observed by any fungicidal action of the test compounds, it was additionally ensured that the tests proceed without fungal infection and without infection pressure. After the recovery phase had ended, the intensities of damage were rated visually compared to untreated, unstressed controls of the same age (in the case of drought stress) or the same growth stage (in the case of cold stress). The intensity of damage was first assessed as a percentage (100%=plants have died, 0%=like control plants). These values were then used to calculate the efficacy of the test compounds (=percentage reduction in the intensity of damage as a result of substance application) by the following formula: [formula] EF: efficacy (%) DVus: damage value of the untreated, stressed control DVts: damage value of the plants treated with test compound The tables below list mean values in each case from three results of the same test. Effects of selected compounds of the formula (I) under drought stress: BRSNS=Brassica napus

Zea mays (ZEAMX) [2] = assay: as above; conditions: 25 g/ha, mean of three results
Experimental: Seeds of monocotyledonous and dicotyledonous crop plants were placed in sandy loam in wood-fiber pots, covered with soil and cultivated in a greenhouse under good growth conditions. The test plants were treated at the early leaf stage (BBCH10-BBCH13). To ensure uniform water supply before commencement of stress, the potted plants were supplied with the maximum amount of water immediately beforehand by dam irrigation and, after application, transferred in plastic inserts in order to prevent subsequent, excessively rapid drying. The inventive compounds, formulated in the form of wettable powders (WP), wettable granules (WG), suspension concentrates (SC) or emulsion concentrates (EC), were sprayed onto the green parts of the plants as an aqueous suspension at an equivalent water application rate of 600 l/ha with addition of 0.2% wetting agent (agrotin). Substance application was followed immediately by stress treatment of the plants (cold or drought stress). For cold stress treatment, the plants were kept under the following controlled conditions: Drought stress was induced by gradual drying out under the following conditions: “day”: 14 hours with illumination at 26° C. “night”: 10 hours without illumination at 18° C. The duration of the respective stress phases was guided mainly by the state of the untreated, stressed control plants and thus varies from crop to crop. It was ended (by re-irrigating or transfer to a greenhouse with good growth conditions) as soon as irreversible damage is observed on the untreated, stressed control plants. In the case of dicotyledonous crops, for example oilseed rape and soya, the duration of the drought stress phase was between 3 and 5 days, in the case of monocotyledonous crops, for example wheat, barley or corn, between 6 and 10 days. The duration of the cold stress phase varied between 12 and 14 days. The end of the stress phase was followed by an approx. 5-7-day recovery phase, during which the plants were once again kept under good growth conditions in a greenhouse. In order to rule out any influence of the effects observed by any fungicidal action of the test compounds, it was additionally ensured that the tests proceed without fungal infection and without infection pressure. After the recovery phase had ended, the intensities of damage were rated visually compared to untreated, unstressed controls of the same age (in the case of drought stress) or the same growth stage (in the case of cold stress). The intensity of damage was first assessed as a percentage (100%=plants have died, 0%=like control plants). These values were then used to calculate the efficacy of the test compounds (=percentage reduction in the intensity of damage as a result of substance application) by the following formula: [formula] EF: efficacy (%) DVus: damage value of the untreated, stressed control DVts: damage value of the plants treated with test compound The tables below list mean values in each case from three results of the same test. Effects of selected compounds of the formula (I) under drought stress: ZEAMX=Zea mays

NC(=O)c1cccc2[nH]c(C(F)(F)F)nc12 [1-14]
>5%: EF (ZEAMX), efficacy = percentage reduction in the intensity of damage (Zea mays (ZEAMX) [1]) | EF (BRSNS), efficacy = percentage reduction in the intensity of damage (Brassica napus (BRSNS)) | EF (ZEAMX), efficacy = percentage reduction in the intensity of damage (Zea mays (ZEAMX) [2])
